Broadly, the surface tension liquid-gas is the work needed to enlarge the surface of a liquid by unit area. What is called viscosity is the resistance of a fluid to flow. As a reminder, the mass density is mass per unit of volume.

Numbers after ± are expanded uncertainties.

For the data set the following is noted: 298.15 K; for viscosity / mass density: 100 kPa, Liquid; for viscosity: Capillary tube (Ostwald / Ubbelohde) method; for mass density: Vibrating tube method.
Setting [1] is: Kruss K11 tensiometer with Wilhelmy plate.

As for `CCCCCCCCCCCCCC[P+](CCCCCC)(CCCCCC)CCCCCC.N#C[N-]C#N` [tetradecyl(trihexyl)phosphonium dicyanamide], the viscosity was 437.8 ± 17 mPa·s and the mass density was found to be 897.36 ± 0.72 kg/m3. Further, under setting [1], the surface tension liquid-gas stood at 33.1 ± 0.4 mN/m.

As to `CCCCCCCCCCCC` [dodecane], the viscosity is 1.359 ± 0.015 mPa·s and the mass density amounted to 745.23 ± 0.14 kg/m3. Besides, the surface tension liquid-gas under setting [1] is 24.9 ± 0.2 mN/m.

In the case of `O` [water], the viscosity turned out to be 0.899 ± 0.01 mPa·s. For the same compound, the surface tension liquid-gas (Kruss K11 tensiometer and Wilhelmy plate) was found to be 72 ± 0.2 mN/m.

The record behind these values is the NIST ThermoML archive (doi:10.1016/j.fluid.2015.07.022).
